Test results: ChEMBL document CHEMBL4837181 (Eur J Med Chem, 2020)
Activity calls are given as the source filed them. The calls are words filed in the database; no cut-off is given here.

How the values were obtained:
[1] = Chemical stability of compound in saline assessed as compound remaining at 5 uM measured after 24 hrs by LC-MS/MS analysis; format: physicochemical; settings: read-out: Stabilty
[2] = Chemical stability of compound in 0.1 N aqueous HCl buffer assessed as compound remaining at pH 1 at 5 uM measured after 1.5 hrs by LC-MS/MS analysis; format: physicochemical; settings: pH 1, 1.5 h
[3] = Chemical stability of compound in 0.1 N aqueous HCl buffer assessed as compound remaining at pH 1 at 5 uM measured after 24 hrs by LC-MS/MS analysis; format: physicochemical; settings: pH 1, 24 h
[4] = Chemical stability of compound in PBS buffer assessed as compound remaining at pH 7.4 at 5 uM measured after 6 hrs by LC-MS/MS analysis; format: physicochemical; settings: read-out: Stabilty
[5] = Chemical stability of compound in PBS buffer assessed as compound remaining at pH 7.4 at 5 uM measured after 24 hrs by LC-MS/MS analysis; format: physicochemical; settings: read-out: Stabilty
[6] = Chemical stability of compound in simulated gastric fluid assessed as compound remaining at 5 uM measured after 1.5 hrs by LC-MS/MS analysis; format: ADME, physicochemical; settings: read-out: Stabilty
[7] = Chemical stability of compound in simulated gastric fluid assessed as compound remaining at 5 uM measured after 24 hrs by LC-MS/MS analysis; format: ADME, physicochemical; settings: read-out: Stabilty
[8] = Chemical stability of compound in simulated intestinal fluid assessed as compound remaining at 5 uM measured after 3 hrs by LC-MS/MS analysis; format: ADME, physicochemical; settings: read-out: Stabilty
[9] = Chemical stability of compound in simulated intestinal fluid assessed as compound remaining at 5 uM measured after 24 hrs by LC-MS/MS analysis; format: ADME, physicochemical; settings: read-out: Stabilty
[10] = Stability in mouse plasma assessed as parent compound remaining measured after 2 hrs by LC-MS/MS analysis; format: ADME, cell-free; settings: read-out: Stabilty
[11] = Stability in rat plasma assessed as parent compound remaining measured after 2 hrs by LC-MS/MS analysis; format: ADME, cell-free; settings: read-out: Stabilty
[12] = Stability in human plasma assessed as parent compound remaining measured after 6 hrs by LC-MS/MS analysis; format: ADME, cell-free; settings: read-out: Stabilty
[13] = Stability in human plasma assessed as parent compound remaining measured after 24 hrs by LC-MS/MS analysis; format: ADME, cell-free; settings: read-out: Stabilty
[14] = Dose normalized Cmax in rat at 50 mg/kg, po measured upto 72 hrs by LC-MS/MS analysis; format: ADME, organism-based; settings: in vivo
[15] = Dose normalized AUC (0 to infinity) in rat at 50 mg/kg, po measured upto 72 hrs by LC-MS/MS analysis; format: ADME, organism-based; settings: in vivo
[16] = Dose normalized Cmax in rat at 10 mg/kg, po measured upto 72 hrs by LC-MS/MS analysis; format: ADME, organism-based; settings: in vivo
[17] = Dose normalized AUC (0 to infinity) in rat at 10 mg/kg, po measured upto 72 hrs by LC-MS/MS analysis; format: ADME, organism-based; settings: in vivo
[18] = Change in normalised Cmax in rat at 50 mg/kg, po measured upto 72 hrs by LC-MS/MS analysis; format: ADME, organism-based; settings: in vivo
[19] = Change in normalised AUC (infinity) in rat at 50 mg/kg, po measured upto 72 hrs by LC-MS/MS analysis; format: ADME, organism-based; settings: in vivo
[20] = Change in normalised Cmax in rat at 10 mg/kg, po measured upto 72 hrs by LC-MS/MS analysis; format: ADME, organism-based; settings: in vivo
[21] = Change in normalised AUCinfinity in rat at 10 mg/kg, po measured upto 72 hrs by LC-MS/MS analysis; format: ADME, organism-based; settings: in vivo
B16-F10 = experiment: Antitumor activity against mouse B16-F10 cells implanted in C57BL/6 mouse assessed as reduction in tumor size at >= 287 micromol/kg, po BID administered from day 6 to day 11 and measured on day 11 by caliper method; format: functional, organism-based; settings: dose micromol/kg >=287
[22] = Cmax in male cynomolgus monkey at 150 mg/kg, po BID measured on day 8; format: ADME, organism-based, Macaca fascicularis; set-up: route oral, dose 150 mg/kg; settings: in vivo
[23] = Cmax in male cynomolgus monkey at 225 mg/kg, po measured on day 1; format: ADME, organism-based, Macaca fascicularis; set-up: route oral, dose 225 mg/kg; settings: in vivo
[24] = Cmax in female cynomolgus monkey at 375 mg/kg, po BID measured on day 8; format: ADME, organism-based, Macaca fascicularis; set-up: route oral, dose 375 mg/kg; settings: in vivo
[25] = Cmax in female cynomolgus monkey at 675 mg/kg, po measured on day 1; format: ADME, organism-based, Macaca fascicularis; set-up: route oral, dose 675 mg/kg; settings: in vivo
[26] = Cmax in male cynomolgus monkey at 675 mg/kg, po measured on day 1; format: ADME, organism-based, Macaca fascicularis; set-up: route oral, dose 675 mg/kg; settings: in vivo
[27] = Tmax in male cynomolgus monkey at 150 mg/kg, po BID measured on day 8; format: ADME, organism-based, Macaca fascicularis; settings: in vivo
[28] = Tmax in male cynomolgus monkey at 225 mg/kg, po measured on day 1; format: ADME, organism-based, Macaca fascicularis; settings: in vivo
[29] = Tmax in female cynomolgus monkey at 375 mg/kg, po BID measured on day 8; format: ADME, organism-based, Macaca fascicularis; settings: in vivo
[30] = Tmax in female cynomolgus monkey at 675 mg/kg, po measured on day 1; format: ADME, organism-based, Macaca fascicularis; settings: in vivo
[31] = Tmax in male cynomolgus monkey at 675 mg/kg, po measured on day 1; format: ADME, organism-based, Macaca fascicularis; settings: in vivo
[32] = AUC (0 to 24 hrs) in male cynomolgus monkey at 150 mg/kg, po BID measured on day 8; format: ADME, organism-based, Macaca fascicularis; set-up: time < 24 hr, route oral, dose 150 mg/kg; settings: in vivo
[33] = AUC (0 to 24 hrs) in male cynomolgus monkey at 225 mg/kg, po measured on day 1; format: ADME, organism-based, Macaca fascicularis; set-up: time < 24 hr, route oral, dose 225 mg/kg; settings: in vivo, 24 h
[34] = AUC (0 to 24 hrs) in female cynomolgus monkey at 375 mg/kg, po BID measured on day 8; format: ADME, organism-based, Macaca fascicularis; set-up: time < 24 hr, route oral, dose 375 mg/kg; settings: in vivo
[35] = AUC (0 to 24 hrs) in female cynomolgus monkey at 675 mg/kg, po measured on day 1; format: ADME, organism-based, Macaca fascicularis; set-up: time < 24 hr, route oral, dose 675 mg/kg; settings: in vivo
[36] = Half life in female cynomolgus monkey at 675 mg/kg, po measured on day 1; format: ADME, organism-based, Macaca fascicularis; settings: in vivo
[37] = AUC (0 to 24 hrs) in male cynomolgus monkey at 675 mg/kg, po measured on day 1; format: ADME, organism-based, Macaca fascicularis; set-up: time < 24 hr, route oral, dose 675 mg/kg; settings: in vivo
[38] = Half life in male cynomolgus monkey at 675 mg/kg, po measured on day 1; format: ADME, organism-based, Macaca fascicularis; settings: in vivo
[39] = Drug accumulation in rat at 100 to 900 mg/kg, po BID; format: ADME, organism-based; settings: in vivo, dose 100-900 mg/kg
[40] = Drug accumulation in monkey at 75 to 375 mg/kg, po BID; format: ADME, organism-based, Macaca mulatta; settings: rhesus monkey, in vivo, dose 75-375 mg/kg
[41] = Protein binding in Beagle dog plasma; format: ADME, cell-free, Canis lupus familiaris; settings: read-out: PPB
[42] = Protein binding in human plasma; format: ADME, cell-free; settings: read-out: PPB
[43] = Change in Cmax in rat at 37 umol/kg, po measured upto 72 hrs by LC-MS/MS analysis; format: ADME, organism-based; settings: in vivo, at 37 µmol/kg
[44] = Change in Cmax in rat at 185 umol/kg, po measured upto 72 hrs by LC-MS/MS analysis; format: ADME, organism-based; settings: in vivo, at 185 µmol/kg
[45] = Change in AUC (infinity) in rat at 37 umol/kg, po measured upto 72 hrs by LC-MS/MS analysis; format: ADME, organism-based; settings: in vivo, at 37 µmol/kg
[46] = Change in Cmax in rat at 500 umol/kg, po measured upto 72 hrs by LC-MS/MS analysis; format: ADME, organism-based; settings: in vivo, at 500 µmol/kg
[47] = Change in AUC(infinity) in rat at 500 umol/kg, po measured upto 72 hrs by LC-MS/MS analysis; format: ADME, organism-based; settings: in vivo, at 500 µmol/kg
[48] = Change in Cmax in cynomolgus monkey at 92 umol/kg, po measured after 0.083 to 48 hrs by LC-MS/MS analysis; format: ADME, organism-based, Macaca fascicularis; settings: in vivo, at 92 µmol/kg, time 0.083-48 hrs
[49] = Change in Cmax in cynomolgus monkey at 275 umol/kg, po measured after 0.083 to 48 hrs by LC-MS/MS analysis; format: ADME, organism-based, Macaca fascicularis; settings: in vivo, at 275 µmol/kg, time 0.083-48 hrs
[50] = Change in Cmax in cynomolgus monkey at 825 umol/kg, po measured after 0.083 to 48 hrs by LC-MS/MS analysis; format: ADME, organism-based, Macaca fascicularis; settings: in vivo, at 825 µmol/kg, time 0.083-48 hrs
[51] = Change in AUC(infinity) in cynomolgus monkey at 92 umol/kg, po measured after 0.083 to 48 hrs by LC-MS/MS analysis; format: ADME, organism-based, Macaca fascicularis; settings: in vivo, at 92 µmol/kg, time 0.083-48 hrs
[52] = Change in AUC(infinity) in cynomolgus monkey at 275 umol/kg, po measured after 0.083 to 48 hrs by LC-MS/MS analysis; format: ADME, organism-based, Macaca fascicularis; settings: in vivo, at 275 µmol/kg, time 0.083-48 hrs
[53] = Change in AUC(infinity) in cynomolgus monkey at 825 umol/kg, po measured after 0.083 to 48 hrs by LC-MS/MS analysis; format: ADME, organism-based, Macaca fascicularis; settings: in vivo, at 825 µmol/kg, time 0.083-48 hrs

CCOC(=O)[C@H](N)Cc1cn(C)c2ccccc12.Cl
remaining at 24 h, 5 µM [1]: 100% | Stabilty [2]: 59% | Stabilty [3]: 100% | remaining at 6 h, 5 µM [4]: 94% | remaining at 24 h, 5 µM [5]: 52% | remaining at 1.5 h, 5 µM [6]: 83% | remaining at 24 h, 5 µM [7]: 85% | remaining at 3 h, 5 µM [8]: 64% | remaining at 24 h, 5 µM [9]: 0% | remaining at 2 h [10]: 0% | remaining at 2 h [11]: 0% | remaining at 6 h [12]: 93% | remaining at 24 h [13]: 35% | Cmax/dose [14]: 66000 nM | AUC/dose [15]: 2988 µM·h | Cmax/dose [16]: 22000 nM | AUC/dose [17]: 454 µM·h | Activity [18]: 143% | Activity [19]: 126% | Activity [20]: 27% | Activity [21]: -11%

CCOC(=O)[C@@H](Cc1cn(C)c2ccccc12)NC(=O)[C@@H](N)CC(C)C
Activity (B16-F10): Active

CC(C)C[C@H](N)C(=O)N[C@H](Cc1cn(C)c2ccccc12)C(=O)O
Cmax [22]: 192 nM | Cmax [23]: 353 nM | Cmax [24]: 308 nM | Cmax [25]: 1580 nM | Cmax [26]: 1760 nM | Tmax [27]: 1 h | Tmax [28]: 2 h | Tmax [29]: 2 h | Tmax [30]: 1.5 h | Tmax [31]: 1 h | AUC at 24 h [32]: 0.0806 µM·h | AUC [33]: 0.858 µM·h | AUC at 24 h [34]: 0.703 µM·h | AUC [35]: 3.61 µM·h | half-life [36]: 8.2 h | AUC [37]: 2.88 µM·h | half-life [38]: 3.7 h | Drug metabolism [39]: Metabolite_Notdetected | Drug metabolism [40]: Metabolite_Notdetected | fraction unbound [41]: > 0.5 | fraction unbound [42]: > 0.5

CCOC(=O)[C@@H](Cc1cn(C)c2ccccc12)NC(=O)[C@@H](N)CC(C)C.O=P(O)(O)O
Activity [43]: 84% | Activity [44]: 69% | Activity [45]: 61%

CCOC(=O)[C@@H](Cc1cn(C)c2ccccc12)NC(=O)[C@@H](N)CCSC.Cl
Activity [43]: 21% | Activity [44]: 152% | Activity [46]: 59% | Activity [45]: 13% | Activity [47]: 49% | Activity [48]: 305% | Activity [49]: 402% | Activity [50]: 411% | Activity [51]: 136% | Activity [52]: 393% | Activity [53]: 369%

CCOC(=O)[C@@H](Cc1cn(C)c2ccccc12)NC(=O)[C@@H](N)CCSC.O=P(O)(O)O
Activity [43]: 32% | Activity [44]: 49% | Activity [45]: 2%

Cn1cc(C[C@@H](N)C(=O)OCC(O)CO)c2ccccc21.O=P(O)(O)O (stereo partly drawn)
Activity [43]: 37% | Activity [44]: 153% | Activity [45]: 46%
